Measurements published in PubChem BioAssay (NCI).
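These data come from cells grown in 96-well plates and exposed to compound for 48 hours at five concentrations. At the GI50, growth is halved. TGI denotes the concentration required for complete inhibition of growth.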

How the values were obtained:
Assay in all cases: NCI tumour cell line growth inhibition, 48 h; in the data active = GI50 below about 0.43 µM; inactive = the rest
786-0 renal = tested on: 786-0 renal
A498 renal = tested on: A498 renal
A549 NSCLC = tested on: A549 NSCLC
ACHN renal = tested on: ACHN renal
BT-549 breast = tested on: BT-549 breast
CAKI-1 renal = tested on: CAKI-1 renal
CCRF-CEM leukemia = tested on: CCRF-CEM leukemia
COLO 205 colon = tested on: COLO 205 colon
DU-145 prostate = tested on: DU-145 prostate
EKVX NSCLC = tested on: EKVX NSCLC
HCC-2998 colon = tested on: HCC-2998 colon
HCT-116 colon = tested on: HCT-116 colon
HCT-15 colon = tested on: HCT-15 colon
HL-60(TB) leukemia = tested on: HL-60(TB) leukemia
HOP-62 NSCLC = tested on: HOP-62 NSCLC
HOP-92 NSCLC = tested on: HOP-92 NSCLC
HS 578T breast = tested on: HS 578T breast
HT29 colon = tested on: HT29 colon
IGROV1 ovarian = tested on: IGROV1 ovarian
K-562 leukemia = tested on: K-562 leukemia
KM12 colon = tested on: KM12 colon
LOX IMVI melanoma = tested on: LOX IMVI melanoma
M14 melanoma = tested on: M14 melanoma
MALME-3M melanoma = tested on: MALME-3M melanoma
MCF7 breast = tested on: MCF7 breast
MDA-MB-231 breast = tested on: MDA-MB-231 breast
MDA-MB-435 = tested on: MDA-MB-435
MOLT-4 leukemia = tested on: MOLT-4 leukemia
NCI-H226 lung = tested on: NCI-H226 lung
NCI-H23 lung = tested on: NCI-H23 lung
NCI-H460 lung = tested on: NCI-H460 lung
NCI-H522 lung = tested on: NCI-H522 lung
NCI/ADR-RES ovarian = tested on: NCI/ADR-RES ovarian
OVCAR-3 ovarian = tested on: OVCAR-3 ovarian
OVCAR-4 ovarian = tested on: OVCAR-4 ovarian
OVCAR-5 ovarian = tested on: OVCAR-5 ovarian
OVCAR-8 ovarian = tested on: OVCAR-8 ovarian
PC-3 prostate = tested on: PC-3 prostate
RPMI-8226 leukemia = tested on: RPMI-8226 leukemia
RXF 393 renal = tested on: RXF 393 renal
SF-268 CNS = tested on: SF-268 CNS
SF-295 CNS = tested on: SF-295 CNS
SF-539 CNS = tested on: SF-539 CNS
SK-MEL-2 melanoma = tested on: SK-MEL-2 melanoma
SK-MEL-28 melanoma = tested on: SK-MEL-28 melanoma
SK-MEL-5 melanoma = tested on: SK-MEL-5 melanoma
SK-OV-3 ovarian = tested on: SK-OV-3 ovarian
SN12C renal = tested on: SN12C renal
SNB-19 CNS = tested on: SNB-19 CNS
SNB-75 CNS = tested on: SNB-75 CNS
SR leukemia = tested on: SR leukemia
SW-620 colon = tested on: SW-620 colon
T-47D breast = tested on: T-47D breast
TK-10 renal = tested on: TK-10 renal
U251 CNS = tested on: U251 CNS
UACC-257 melanoma = tested on: UACC-257 melanoma
UACC-62 melanoma = tested on: UACC-62 melanoma
UO-31 renal = tested on: UO-31 renal
MDA-N = tested on: MDA-N

OCCNc1nc2ccccc2c2[nH]c3ccccc3c12
11400 nM: TGI (SN12C renal)
4700 nM: TGI (OVCAR-8 ovarian)
15500 nM: TGI (EKVX NSCLC)
2420 nM: TGI (SF-295 CNS)
1910 nM: TGI (MALME-3M melanoma)
5950 nM: TGI (SR leukemia)
6520 nM: TGI (UACC-62 melanoma)
1240 nM: TGI (NCI-H460 lung)
1950 nM: TGI (HL-60(TB) leukemia)
3910 nM: TGI (RPMI-8226 leukemia)
3680 nM: TGI (SF-539 CNS)
active: GI50 (786-0 renal) 407 nM | GI50 (A498 renal) 360 nM | GI50 (A549 NSCLC) 394 nM | GI50 (ACHN renal) 278 nM | GI50 (COLO 205 colon) 329 nM | GI50 (HCT-116 colon) 278 nM | GI50 (HCT-15 colon) 349 nM | GI50 (HL-60(TB) leukemia) 349 nM | GI50 (HT29 colon) 321 nM | GI50 (IGROV1 ovarian) 397 nM | GI50 (LOX IMVI melanoma) 419 nM | GI50 (MCF7 breast) 355 nM | GI50 (MOLT-4 leukemia) 240 nM | GI50 (NCI-H460 lung) 305 nM | GI50 (NCI-H522 lung) 360 nM | GI50 (RPMI-8226 leukemia) 388 nM | GI50 (RXF 393 renal) 146 nM | GI50 (SF-295 CNS) 314 nM | GI50 (SK-OV-3 ovarian) 329 nM | GI50 (SN12C renal) 340 nM | GI50 (SNB-19 CNS) 345 nM | GI50 (SR leukemia) 206 nM | GI50 (SW-620 colon) 325 nM | GI50 (T-47D breast) 366 nM | GI50 (UO-31 renal) 297 nM
3420 nM: TGI (SF-268 CNS)
2330 nM: TGI (UACC-257 melanoma)
1730 nM: TGI (NCI-H522 lung)
6100 nM: TGI (IGROV1 ovarian)
3470 nM: TGI (OVCAR-3 ovarian)
13200 nM: TGI (HOP-92 NSCLC)
4310 nM: TGI (U251 CNS)
2710 nM: TGI (HT29 colon)
4630 nM: TGI (KM12 colon)
3630 nM: TGI (MDA-MB-231 breast)
646 nM: TGI (RXF 393 renal)
2550 nM: TGI (SK-MEL-28 melanoma)
2030 nM: TGI (M14 melanoma)
1920 nM: TGI (786-0 renal)
1480 nM: TGI (MOLT-4 leukemia)
1370 nM: TGI (COLO 205 colon) | TGI (UO-31 renal)
10700 nM: TGI (CCRF-CEM leukemia)
1800 nM: TGI (LOX IMVI melanoma)
4200 nM: TGI (SNB-75 CNS)
1680 nM: TGI (HCT-116 colon)
1710 nM: TGI (HCC-2998 colon)
7550 nM: TGI (OVCAR-5 ovarian)
2670 nM: TGI (ACHN renal)
4790 nM: TGI (NCI-H226 lung)
2540 nM: TGI (SK-MEL-5 melanoma)
4590 nM: TGI (OVCAR-4 ovarian)
1810 nM: TGI (MDA-MB-435)
5180 nM: TGI (NCI/ADR-RES ovarian)
inactive: GI50 (BT-549 breast) 1730 nM | GI50 (CAKI-1 renal) 529 nM | GI50 (CCRF-CEM leukemia) 654 nM | GI50 (DU-145 prostate) 659 nM | GI50 (EKVX NSCLC) 2140 nM | GI50 (HCC-2998 colon) 527 nM | GI50 (HOP-62 NSCLC) 583 nM | GI50 (HOP-92 NSCLC) 943 nM | GI50 (HS 578T breast) 710 nM | GI50 (K-562 leukemia) 440 nM | GI50 (KM12 colon) 483 nM | GI50 (M14 melanoma) 699 nM | GI50 (MALME-3M melanoma) 487 nM | GI50 (MDA-MB-231 breast) 611 nM | GI50 (MDA-MB-435) 528 nM | GI50 (NCI-H226 lung) 839 nM | GI50 (NCI-H23 lung) 496 nM | GI50 (NCI/ADR-RES ovarian) 738 nM | GI50 (OVCAR-3 ovarian) 516 nM | GI50 (OVCAR-4 ovarian) 1060 nM | GI50 (OVCAR-5 ovarian) 1130 nM | GI50 (OVCAR-8 ovarian) 455 nM | GI50 (PC-3 prostate) 1100 nM | GI50 (SF-268 CNS) 519 nM | GI50 (SF-539 CNS) 615 nM | GI50 (SK-MEL-2 melanoma) 907 nM | GI50 (SK-MEL-28 melanoma) 1040 nM | GI50 (SK-MEL-5 melanoma) 979 nM | GI50 (SNB-75 CNS) 1880 nM | GI50 (TK-10 renal) 744 nM | GI50 (U251 CNS) 661 nM | GI50 (UACC-257 melanoma) 944 nM | GI50 (UACC-62 melanoma) 1360 nM
1880 nM: TGI (NCI-H23 lung)
2000 nM: TGI (MCF7 breast)
8900 nM: TGI (CAKI-1 renal)
2290 nM: TGI (T-47D breast)
6680 nM: TGI (BT-549 breast)
6660 nM: TGI (HOP-62 NSCLC)
12500 nM: TGI (DU-145 prostate)
3570 nM: TGI (SNB-19 CNS)
5160 nM: TGI (TK-10 renal)
16900 nM: TGI (PC-3 prostate)
3290 nM: TGI (SK-MEL-2 melanoma)
> 26300 nM: TGI (K-562 leukemia)
2070 nM: TGI (SK-OV-3 ovarian)
3590 nM: TGI (HCT-15 colon)
4570 nM: TGI (HS 578T breast)
1720 nM: TGI (A498 renal)
2260 nM: TGI (SW-620 colon)
2190 nM: TGI (A549 NSCLC)

CCCCCCCCCCCCOCC(COP(=O)(O)OCCN=[N+]=[N-])OC(=O)CCCCCCCCCCC (stereo unspecified)
> 100000 nM: TGI (786-0 renal) | TGI (A498 renal) | TGI (A549 NSCLC) | TGI (ACHN renal) | TGI (CAKI-1 renal) | TGI (COLO 205 colon) | TGI (DU-145 prostate) | TGI (HCC-2998 colon) | TGI (HCT-116 colon) | TGI (HCT-15 colon) | TGI (HOP-62 NSCLC) | TGI (HOP-92 NSCLC) | TGI (HT29 colon) | TGI (K-562 leukemia) | TGI (KM12 colon) | TGI (M14 melanoma) | TGI (MALME-3M melanoma) | TGI (MCF7 breast) | TGI (MDA-MB-231 breast) | TGI (MDA-MB-435) | TGI (MDA-N) | TGI (MOLT-4 leukemia) | TGI (NCI-H23 lung) | TGI (NCI-H460 lung) | TGI (NCI-H522 lung) | TGI (NCI/ADR-RES ovarian) | TGI (OVCAR-3 ovarian) | TGI (OVCAR-4 ovarian) | TGI (OVCAR-5 ovarian) | TGI (OVCAR-8 ovarian) | TGI (PC-3 prostate) | TGI (RPMI-8226 leukemia) | TGI (RXF 393 renal) | TGI (SF-268 CNS) | TGI (SF-295 CNS) | TGI (SF-539 CNS) | TGI (SK-MEL-2 melanoma) | TGI (SK-MEL-28 melanoma) | TGI (SK-MEL-5 melanoma) | TGI (SK-OV-3 ovarian) | TGI (SN12C renal) | TGI (SNB-19 CNS) | TGI (SW-620 colon) | TGI (T-47D breast) | TGI (TK-10 renal) | TGI (U251 CNS) | TGI (UACC-62 melanoma) | TGI (UO-31 renal)

COC(=O)Nc1cc(OCCCOC(C)=O)c2[nH]c(C(=O)OC)cc2c1C[C@H](O)CO
> 100000 nM: TGI (786-0 renal) | TGI (A498 renal) | TGI (A549 NSCLC) | TGI (ACHN renal) | TGI (BT-549 breast) | TGI (CAKI-1 renal) | TGI (CCRF-CEM leukemia) | TGI (COLO 205 colon) | TGI (DU-145 prostate) | TGI (EKVX NSCLC) | TGI (HCC-2998 colon) | TGI (HCT-116 colon) | TGI (HCT-15 colon) | TGI (HL-60(TB) leukemia) | TGI (HOP-62 NSCLC) | TGI (HOP-92 NSCLC) | TGI (HT29 colon) | TGI (IGROV1 ovarian) | TGI (KM12 colon) | TGI (LOX IMVI melanoma) | TGI (M14 melanoma) | TGI (MCF7 breast) | TGI (MDA-MB-231 breast) | TGI (MDA-MB-435) | TGI (MDA-N) | TGI (MOLT-4 leukemia) | TGI (NCI-H226 lung) | TGI (NCI-H23 lung) | TGI (NCI/ADR-RES ovarian) | TGI (OVCAR-3 ovarian) | TGI (OVCAR-4 ovarian) | TGI (OVCAR-5 ovarian) | TGI (OVCAR-8 ovarian) | TGI (PC-3 prostate) | TGI (RPMI-8226 leukemia) | TGI (SF-295 CNS) | TGI (SF-539 CNS) | TGI (SK-MEL-2 melanoma) | TGI (SK-MEL-28 melanoma) | TGI (SK-MEL-5 melanoma) | TGI (SK-OV-3 ovarian) | TGI (SN12C renal) | TGI (SNB-19 CNS) | TGI (SR leukemia) | TGI (SW-620 colon) | TGI (T-47D breast) | TGI (TK-10 renal) | TGI (U251 CNS) | TGI (UACC-257 melanoma) | TGI (UACC-62 melanoma) | TGI (UO-31 renal)
26900 nM: TGI (NCI-H522 lung)
